Key:
[1] = biological target: T1, phospho-FMS in THP-1 cells (Homo sapiens, UniProt P07333); experiment: Phospho-FMS ELISA assay in THP-1 cells; type: cell-based; conditions: 4 hours compound, M-CSF stimulated; read-out: pFMS inhibition in THP-1 cells
T1 construct: endogenous in cells; host or cells: THP-1 (ATCC TIB-202)
Method: In a separate 96 well black clear bottom plate, one hundred and fifty thousand THP-1 cells were added per well in 100 μL in assay medium. Fifty microliters of diluted compound was then added to the cells. […] Lysates were prepared and used to perform the phospho-FMS ELISA as described by the manufacturer (catalog #DYC3268, R & D Systems, Minneapolis, Minn.). GraphPad Prism was used to calculate IC50 values obtained from data generated from the ELISA assay.

[2] = biological target: T2, unphosphorylated c-FMS kinase (uFMS, Seq. ID no. 1) (Homo sapiens, UniProt P07333); experiment: uFMS kinase assay (pyruvate kinase/lactate dehydrogenase coupled); type: biochemical; conditions: ATP 500 μM
T2 construct: purchased Millipore
T2 sequence (P07333 538-972): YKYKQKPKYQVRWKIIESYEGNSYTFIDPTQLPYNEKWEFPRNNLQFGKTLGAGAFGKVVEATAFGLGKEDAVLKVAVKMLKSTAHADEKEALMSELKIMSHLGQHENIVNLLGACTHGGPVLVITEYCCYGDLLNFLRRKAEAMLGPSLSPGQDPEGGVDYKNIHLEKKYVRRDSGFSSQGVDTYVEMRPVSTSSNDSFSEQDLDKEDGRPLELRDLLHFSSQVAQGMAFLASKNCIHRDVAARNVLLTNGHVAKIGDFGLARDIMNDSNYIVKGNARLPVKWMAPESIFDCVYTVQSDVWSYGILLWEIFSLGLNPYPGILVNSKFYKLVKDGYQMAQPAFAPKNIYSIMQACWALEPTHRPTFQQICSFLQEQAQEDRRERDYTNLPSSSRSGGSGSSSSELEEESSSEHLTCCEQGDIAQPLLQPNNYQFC
Method: In this assay, the oxidation of NADH (thus the decrease at A340 nm) was continuously monitored spectrophometrically. The reaction mixture (100 μL) contained FMS (purchased from Millipore) (10 nM), polyE4Y (1 mg/mL), MgCl2 (10 mM), pyruvate kinase (4 units), lactate dehydrogenase (0.7 units), phosphoenol pyruvate (1 mM), NADH (0.28 mM) and ATP (500 μM) in 90 mM Tris buffer containing 0.2% octyl-glucoside and 1% DMSO, pH 7.5. The inhibition reaction was started by mixing serial diluted test compound with the above reaction mixture. The absorption at 340 nm was monitored continuously for 4 hours at 30° C. on Synergy 2 plate reader. The reaction rate was calculated using the 3 to 4 h time frame. Percent inhibition was obtained by comparison of reaction rate with that of a control (i.e. in the absence of test compound). IC50 values were calculated from a series of percent inhibition values determined at a range of inhibitor concentrations using software routines as implemented in the GraphPad Prism software package.

[3] = biological target: T3, unphosphorylated c-KIT kinase (uKIT, Seq. ID no. 2) (Homo sapiens, UniProt P10721); experiment: uKit kinase assay (pyruvate kinase/lactate dehydrogenase coupled); type: biochemical; conditions: ATP 2000 μM
T3 construct: uKit with N-terminal GST fusion used for
T3 sequence (P10721 with tags, fused parts or gaps): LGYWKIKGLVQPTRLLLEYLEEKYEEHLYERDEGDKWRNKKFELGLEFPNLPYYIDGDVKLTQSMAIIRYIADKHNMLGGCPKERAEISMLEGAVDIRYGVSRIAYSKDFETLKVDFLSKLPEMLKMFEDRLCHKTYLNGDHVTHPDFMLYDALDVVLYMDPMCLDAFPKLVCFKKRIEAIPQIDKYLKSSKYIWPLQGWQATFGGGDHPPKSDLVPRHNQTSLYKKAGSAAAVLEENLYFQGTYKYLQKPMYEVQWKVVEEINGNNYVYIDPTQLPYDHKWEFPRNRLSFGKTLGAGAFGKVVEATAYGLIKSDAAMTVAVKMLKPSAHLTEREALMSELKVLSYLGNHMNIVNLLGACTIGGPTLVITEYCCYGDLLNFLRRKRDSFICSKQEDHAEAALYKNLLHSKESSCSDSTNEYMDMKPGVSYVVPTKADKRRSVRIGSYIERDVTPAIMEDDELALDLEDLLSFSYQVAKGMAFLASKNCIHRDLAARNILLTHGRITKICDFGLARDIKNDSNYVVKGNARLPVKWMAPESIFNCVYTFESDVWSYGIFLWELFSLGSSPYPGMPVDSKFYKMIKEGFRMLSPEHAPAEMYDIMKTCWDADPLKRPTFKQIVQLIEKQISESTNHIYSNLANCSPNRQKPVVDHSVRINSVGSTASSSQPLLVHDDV
Method: In this assay, the oxidation of NADH (thus the decrease at A340 nm) was continuously monitored spectrophometrically. […] The inhibition reaction was started by mixing serial diluted test compound with the above reaction mixture. The absorption at 340 nm was monitored continuously for 4 hours at 30° C. on Synergy 2 plate reader (BioTech).

M-NFS-60 cells = experiment: M-NFS-60 cell proliferation assay; type: cell-based; conditions: 67 h incubation, resazurin
Method: M-NFS-60 Cell Proliferation Assay A serial dilution of test compound was dispensed into a 384-well black clear bottom plate (Corning, Corning, N.Y.). Two thousand five hundred cells were added per well in 50 μL complete growth medium. […] IC50 values were calculated from a series of percent inhibition values determined at a range of inhibitor concentrations using software routines as implemented in the GraphPad Prism software package.

osteoclast precursors = experiment: Osteoclast tartrate-resistant acid phosphatase assay; type: cell-based; conditions: Osteoclast; 7-14 days, RANKL and M-CSF
Method: Diluted compound was transferred to a 384-well black clear bottom plate. Two-thousand five hundred osteoclast precursors (Lonza, Walkersville, Md.) were added per well in growth media containing Receptor Activator of Nuclear Factor Kappa-beta ligand (RANKL) and M-CSF (R&D Systems, Minneapolis, Minn.). Plates were incubated for 7-14 days at 37 degrees Celsius, 5% CO2, and 95% humidity to allow differentiation of osteoclast precursors. […] Tartrate-resistant acid phosphatase activity in the supernatant samples was determined using an acid phosphatase assay kit (Sigma, St. Louis, Mo.). Absorbance was measured at 550 nm using a plate reader. Data was analyzed using Prism software (Graphpad, San Diego, Calif.) to calculate IC50 values.

[4] = biological target: T4, unphosphorylated PDGFRβ kinase (uPDGFRβ, Seq. ID No. 3) (Homo sapiens, UniProt P09619); experiment: Unphosphorylated PDGFRβ kinase assay (pyruvate kinase/lactate dehydrogenase coupled); type: biochemical; conditions: ATP 500 μM
T4 construct: purchased DeCode
T4 sequence (P09619 557-1105): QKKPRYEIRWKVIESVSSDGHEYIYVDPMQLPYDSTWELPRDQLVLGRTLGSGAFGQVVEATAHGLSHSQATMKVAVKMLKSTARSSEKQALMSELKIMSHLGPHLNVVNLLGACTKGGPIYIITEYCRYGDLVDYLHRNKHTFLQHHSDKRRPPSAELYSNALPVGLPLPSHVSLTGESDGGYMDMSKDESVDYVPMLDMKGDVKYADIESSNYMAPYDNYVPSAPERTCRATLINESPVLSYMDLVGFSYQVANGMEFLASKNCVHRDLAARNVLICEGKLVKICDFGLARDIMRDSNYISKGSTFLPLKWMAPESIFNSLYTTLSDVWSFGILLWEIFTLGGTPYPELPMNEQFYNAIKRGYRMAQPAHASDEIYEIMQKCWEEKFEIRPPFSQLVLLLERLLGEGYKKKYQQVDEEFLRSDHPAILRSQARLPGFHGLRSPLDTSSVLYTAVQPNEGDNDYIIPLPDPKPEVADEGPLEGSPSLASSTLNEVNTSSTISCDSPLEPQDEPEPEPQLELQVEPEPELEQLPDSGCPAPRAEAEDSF
Source text: Unphosyhorylated PDGFRβ (uPDGFRβkinase (Seq. ID No. 3) assay

T1 sequence (P07333 20-972): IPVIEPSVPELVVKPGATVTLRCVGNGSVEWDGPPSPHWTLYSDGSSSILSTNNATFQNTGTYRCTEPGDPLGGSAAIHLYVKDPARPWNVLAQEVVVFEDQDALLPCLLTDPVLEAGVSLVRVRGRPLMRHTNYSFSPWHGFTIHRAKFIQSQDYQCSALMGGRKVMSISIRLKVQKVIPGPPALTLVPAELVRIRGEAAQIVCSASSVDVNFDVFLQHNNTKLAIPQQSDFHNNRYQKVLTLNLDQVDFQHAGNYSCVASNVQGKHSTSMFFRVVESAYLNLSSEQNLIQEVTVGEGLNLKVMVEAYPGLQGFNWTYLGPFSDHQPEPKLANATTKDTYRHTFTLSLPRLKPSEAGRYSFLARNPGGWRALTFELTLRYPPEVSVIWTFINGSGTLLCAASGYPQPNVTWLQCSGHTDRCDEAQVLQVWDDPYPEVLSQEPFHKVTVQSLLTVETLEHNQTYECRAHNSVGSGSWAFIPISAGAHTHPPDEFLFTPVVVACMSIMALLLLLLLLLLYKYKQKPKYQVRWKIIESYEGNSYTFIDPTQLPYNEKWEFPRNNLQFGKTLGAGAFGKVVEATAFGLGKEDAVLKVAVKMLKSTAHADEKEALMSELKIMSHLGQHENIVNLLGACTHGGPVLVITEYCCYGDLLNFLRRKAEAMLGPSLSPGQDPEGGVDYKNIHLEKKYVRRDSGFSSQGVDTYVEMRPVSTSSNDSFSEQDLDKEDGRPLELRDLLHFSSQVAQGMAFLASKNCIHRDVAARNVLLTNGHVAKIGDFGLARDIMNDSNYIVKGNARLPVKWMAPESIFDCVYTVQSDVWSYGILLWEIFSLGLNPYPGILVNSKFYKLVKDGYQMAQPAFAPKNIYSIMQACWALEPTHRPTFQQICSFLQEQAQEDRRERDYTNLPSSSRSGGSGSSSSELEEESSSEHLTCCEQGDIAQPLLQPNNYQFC

Row | IC50 [1] [nM] | IC50 [2] [nM] | IC50 [3] [nM] | IC50 (osteoclast precursors) [nM] | IC50 [4] [nM] | Compound | IC50 (M-NFS-60 cells) [nM]
1 | 10 to 100 | < 10 | 100 to 1000 | < 10 | < 10 | CC(=O)Nc1cc(Oc2ccc(NC(=O)NC(=O)C3CCCC3)nc2)ccn1 [Example 2, N-((5-((2-acetamidopyridin-4-yl)oxy)pyridin-2-yl)carbamoyl)cyclopentanecarboxamide] | 10 to 100
2 | < 10 | 10 to 100 | 100 to 1000 | < 10 | 100 to 1000 | CC(=O)Nc1cc(Oc2ccc(NC(=O)NC(=O)C3CCOCC3)nc2)ccn1 [Example 5, N-((5-((2-acetamidopyridin-4-yl)oxy)pyridin-2-yl)carbamoyl)tetrahydro-2H-pyran-4-carboxamide] | 10 to 100
3 | < 10 | 10 to 100 | > 1000 | 10 to 100 | 100 to 1000 | CC(=O)Nc1cc(Oc2ccc(NC(=O)NC(=O)C3CCOCC3)nc2C)ccn1 [Example 7, N-((5-((2-acetamidopyridin-4-yl)oxy)-6-methylpyridin-2-yl)carbamoyl)tetrahydro-2H-pyran-4-carboxamide] | 10 to 100
4 | < 10 | < 10 | > 1000 | < 10 | > 1000 | CC(=O)Nc1cc(Oc2ccc(NC(=O)NC(=O)C(C)(C)C)nc2C)ccn1 [Example 9, N-((5-((2-acetamidopyridin-4-yl)oxy)-6-methylpyridin-2-yl)carbamoyl)pivalamide] | < 10
5 | 10 to 100 | < 10 | > 1000 | 10 to 100 | 100 to 1000 | CCC(=O)Nc1cc(Oc2ccc(NC(=O)NC(=O)C(C)(C)C)nc2C)ccn1 [Example 12, N-((6-methyl-5-((2-propionamidopyridin-4-yl)oxy)pyridin-2-yl)carbamoyl)pivalamide] | < 10
6 | < 10 | < 10 | > 1000 | 10 to 100 | 100 to 1000 | Cc1nc(NC(=O)NC(=O)C(C)(C)C)ccc1Oc1ccnc(NC(=O)C(C)C)c1 [Example 13, N-((5-((2-isobutyramidopyridin-4-yl)oxy)-6-methylpyridin-2-yl)carbamoyl)pivalamide] | < 10
7 | 10 to 100 | 10 to 100 | > 1000 | 10 to 100 | 100 to 1000 | CC(C)C(=O)Nc1cc(Oc2ccc(NC(=O)NC(=O)C(C)(C)C)nc2)ccn1 [Example 17, N-((5-((2-isobutyramidopyridin-4-yl)oxy)pyridin-2-yl)carbamoyl)pivalamide] | 10 to 100
8 | 10 to 100 | 10 to 100 | 100 to 1000 | < 10 | 100 to 1000 | CC(=O)Nc1cc(Oc2ccc(NC(=O)NC(=O)C3(C)CC3)nc2)ccn1 [Example 19, N-((5-((2-acetamidopyridin-4-yl)oxy)pyridin-2-yl)carbamoyl)-1-methylcyclopropanecarboxamide] | 10 to 100
9 | < 10 | 10 to 100 | > 1000 | 10 to 100 | > 1000 | COC(C)(C)C(=O)NC(=O)Nc1ccc(Oc2ccnc(NC(C)=O)c2)c(C)n1 [Example 20, N-((5-((2-acetamidopyridin-4-yl)oxy)-6-methylpyridin-2-yl)carbamoyl)-2-methoxy-2-methylpropanamide] | < 10
10 | < 10 | 10 to 100 | 100 to 1000 | < 10 | 100 to 1000 | CCC(=O)Nc1cc(Oc2ccc(NC(=O)NC(=O)C(C)(C)C)nc2)ccn1 [Example 24, N-((5-((2-propionamidopyridin-4-yl)oxy)pyridin-2-yl)carbamoyl)pivalamide] | 10 to 100
11 | < 10 | 10 to 100 | > 1000 | < 10 | 100 to 1000 | CC(=O)Nc1cc(Oc2ccc(NC(=O)NC(=O)C3(C(F)(F)F)CCC3)nc2)ccn1 [Example 25, N-((5-((2-acetamidopyridin-4-yl)oxy)pyridin-2-yl)carbamoyl)-1-(trifluoromethyl)cyclobutanecarboxamide] | 10 to 100
12 | 10 to 100 | 10 to 100 | > 1000 | < 10 | 100 to 1000 | COC1(C(=O)NC(=O)Nc2ccc(Oc3ccnc(NC(C)=O)c3)cn2)CC1 [Example 27, N-((5-((2-acetamidopyridin-4-yl)oxy)pyridin-2-yl)carbamoyl)-1-methoxycyclopropanecarboxamide] | 10 to 100
13 | < 10 | < 10 | 10 to 100 | < 10 | 100 to 1000 | CC1(C(=O)NC(=O)Nc2ccc(Oc3ccnc(NC(=O)C4CC4)c3)cn2)CC1 [Example 30, N-((5-((2-(cyclopropanecarboxamido)pyridin-4-yl)oxy)pyridin-2-yl)carbamoyl)-1-methylcyclopropanecarboxamide] | 10 to 100
14 | < 10 | < 10 | 100 to 1000 | < 10 | 100 to 1000 | COC(C)(C)C(=O)NC(=O)Nc1ccc(Oc2ccnc(NC(=O)C3CC3)c2)cn1 [Example 31, N-(4-((6-(3-(2-methoxy-2-methylpropanoyl)ureido)pyridin-3-yl)oxy)pyridin-2-yl)cyclopropanecarboxamide] | 10 to 100
15 | 10 to 100 | 10 to 100 | > 1000 | 10 to 100 | 100 to 1000 | CN1CCC(C(=O)Nc2cc(Oc3ccc(NC(=O)NC(=O)C4(C)CC4)nc3)ccn2)CC1 [Example 33, 1-methyl-N-(4-((6-(3-(1-methylcyclopropanecarbonyl)ureido)pyridin-3-yl)oxy)pyridin-2-yl)piperidine-4-carboxamide] | 100 to 1000
16 | 10 to 100 | < 10 | 100 to 1000 | < 10 | 10 to 100 | CCC(=O)Nc1cc(Oc2ccc(NC(=O)NC(=O)C3(C)CC3)nc2)ccn1 [Example 36, 1-methyl-N-((5-((2-propionamidopyridin-4-yl)oxy)pyridin-2-yl)carbamoyl)cyclopropanecarboxamide] | 10 to 100
17 | < 10 | < 10 | > 1000 | 10 to 100 | 100 to 1000 | CCC(=O)Nc1cc(Oc2ccc(NC(=O)NC(=O)C(C)(C)OC)nc2)ccn1 [Example 37, 2-methoxy-2-methyl-N-((5-((2-propionamidopyridin-4-yl)oxy)pyridin-2-yl)carbamoyl)propanamide] | 10 to 100
18 | < 10 | < 10 | 100 to 1000 | 10 to 100 | 10 to 100 | COC(C)(C)C(=O)NC(=O)Nc1cc(C)c(Oc2ccnc(NC(C)=O)c2)cn1 [Example 38, N-((5-((2-acetamidopyridin-4-yl)oxy)-4-methylpyridin-2-yl)carbamoyl)-2-methoxy-2-methylpropanamide] | < 10
19 | 10 to 100 | < 10 | 100 to 1000 | < 10 | 10 to 100 | COC1(C(=O)NC(=O)Nc2ccc(Oc3ccnc(NC(=O)C4CC4)c3)cn2)CC1 [Example 41, N-((5-((2-(cyclopropanecarboxamido)pyridin-4-yl)oxy)pyridin-2-yl)carbamoyl)-1-methoxycyclopropanecarboxamide] | 10 to 100
20 | < 10 | < 10 | 100 to 1000 | < 10 | 10 to 100 | CC(=O)Nc1cc(Oc2cnc(NC(=O)NC(=O)C(C)(C)C)cc2C)ccn1 [Example 42, N-((5-((2-acetamidopyridin-4-yl)oxy)-4-methylpyridin-2-yl)carbamoyl)pivalamide] | < 10
21 | < 10 | < 10 | 100 to 1000 | < 10 | 100 to 1000 | CC(C)(C)C(=O)NC(=O)Nc1ccc(Oc2ccnc(NC(=O)N3CCOCC3)c2)cn1 [Example 46, N-(4-((6-(3-pivaloylureido)pyridin-3-yl)oxy)pyridin-2-yl)morpholine-4-carboxamide] | < 10
